According to publication PMC11729428, “New Potent Inhibitor of Transforming Growth Factor-Beta (TGFβ) Signaling that is Efficacious against Microsatellite Stable Colorectal Cancer Metastasis in Combination with Immune Checkpoint Therapy in Mice” (ACS Pharmacology & Translational Science, 2024):
Read-outs that look alike come from different tables or passages of the source.

Key:
ALK4 (ACVR1B) = target: T1, ALK4 (ACVR1B) (Homo sapiens, UniProt P36896); settings: reported data ref 15, read-out: Binding constant (Kd) ALK4 (ACVR1B), cited from earlier work
T1 sequence (P36896 24-505): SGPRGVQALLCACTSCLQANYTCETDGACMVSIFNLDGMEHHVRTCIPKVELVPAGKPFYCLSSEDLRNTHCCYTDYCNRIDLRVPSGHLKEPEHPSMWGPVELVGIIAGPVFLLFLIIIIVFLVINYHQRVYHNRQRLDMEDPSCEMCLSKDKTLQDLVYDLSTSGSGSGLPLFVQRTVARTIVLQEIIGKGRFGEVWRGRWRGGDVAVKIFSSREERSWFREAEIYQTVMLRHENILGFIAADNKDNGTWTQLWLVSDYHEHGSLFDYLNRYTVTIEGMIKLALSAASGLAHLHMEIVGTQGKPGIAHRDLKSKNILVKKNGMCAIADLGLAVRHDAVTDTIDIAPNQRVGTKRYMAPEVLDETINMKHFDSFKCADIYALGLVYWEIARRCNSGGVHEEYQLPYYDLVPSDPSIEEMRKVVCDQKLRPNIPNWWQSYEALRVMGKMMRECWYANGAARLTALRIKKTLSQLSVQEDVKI

ALK6 (BMPR1B) = target: T2, ALK6 (BMPR1B) (Homo sapiens, UniProt O00238); design: method as in earlier work; settings: reported data ref 15; read-out: Binding constant (Kd) ALK6 (BMPR1B); cited from earlier work
T2 construct: purchased Eurofins/DiscoveryX (KINOMEscan service)
T2 sequence (O00238 14-502): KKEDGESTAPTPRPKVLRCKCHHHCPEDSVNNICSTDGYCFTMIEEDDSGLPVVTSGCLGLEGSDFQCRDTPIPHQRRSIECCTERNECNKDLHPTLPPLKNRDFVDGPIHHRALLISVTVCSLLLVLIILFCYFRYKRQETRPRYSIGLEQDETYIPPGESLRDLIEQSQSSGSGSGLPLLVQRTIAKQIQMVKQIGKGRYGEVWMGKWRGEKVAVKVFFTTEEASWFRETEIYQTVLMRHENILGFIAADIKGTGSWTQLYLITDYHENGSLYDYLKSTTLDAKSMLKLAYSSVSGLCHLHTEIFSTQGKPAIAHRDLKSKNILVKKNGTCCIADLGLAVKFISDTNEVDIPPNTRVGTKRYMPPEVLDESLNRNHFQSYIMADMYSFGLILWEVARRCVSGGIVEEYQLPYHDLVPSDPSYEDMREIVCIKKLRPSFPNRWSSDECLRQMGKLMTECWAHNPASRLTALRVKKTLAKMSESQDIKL

ACVR2B = target: T3, ACVR2B (Homo sapiens, UniProt Q13705); design: method as in earlier work; settings: reported data ref 15; read-out: Binding constant (Kd) ACVR2B; cited from earlier work
T3 construct: purchased Eurofins/DiscoveryX (KINOMEscan service)
T3 sequence (Q13705 19-512): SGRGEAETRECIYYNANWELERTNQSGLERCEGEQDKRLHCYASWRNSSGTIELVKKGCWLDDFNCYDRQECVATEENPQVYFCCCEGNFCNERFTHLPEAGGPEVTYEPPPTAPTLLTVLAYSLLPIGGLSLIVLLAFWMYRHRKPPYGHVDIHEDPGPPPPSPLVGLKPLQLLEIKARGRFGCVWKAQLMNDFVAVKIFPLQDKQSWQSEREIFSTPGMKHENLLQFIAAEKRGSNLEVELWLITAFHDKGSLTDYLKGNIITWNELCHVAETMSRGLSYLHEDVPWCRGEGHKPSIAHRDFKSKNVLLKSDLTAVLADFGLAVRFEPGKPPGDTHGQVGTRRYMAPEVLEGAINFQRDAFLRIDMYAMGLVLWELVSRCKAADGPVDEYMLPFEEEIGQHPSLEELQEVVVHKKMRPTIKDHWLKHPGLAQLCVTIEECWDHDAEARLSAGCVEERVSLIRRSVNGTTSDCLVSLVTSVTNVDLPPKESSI

TGFBR2 = target: T4, TGFBR2 (Homo sapiens, UniProt P37173); design: method as in earlier work; settings: reported data ref 15; read-out: Binding constant (Kd) TGFBR2; cited from earlier work
T4 construct: purchased Eurofins/DiscoveryX (KINOMEscan service)
T4 sequence (P37173 23-567): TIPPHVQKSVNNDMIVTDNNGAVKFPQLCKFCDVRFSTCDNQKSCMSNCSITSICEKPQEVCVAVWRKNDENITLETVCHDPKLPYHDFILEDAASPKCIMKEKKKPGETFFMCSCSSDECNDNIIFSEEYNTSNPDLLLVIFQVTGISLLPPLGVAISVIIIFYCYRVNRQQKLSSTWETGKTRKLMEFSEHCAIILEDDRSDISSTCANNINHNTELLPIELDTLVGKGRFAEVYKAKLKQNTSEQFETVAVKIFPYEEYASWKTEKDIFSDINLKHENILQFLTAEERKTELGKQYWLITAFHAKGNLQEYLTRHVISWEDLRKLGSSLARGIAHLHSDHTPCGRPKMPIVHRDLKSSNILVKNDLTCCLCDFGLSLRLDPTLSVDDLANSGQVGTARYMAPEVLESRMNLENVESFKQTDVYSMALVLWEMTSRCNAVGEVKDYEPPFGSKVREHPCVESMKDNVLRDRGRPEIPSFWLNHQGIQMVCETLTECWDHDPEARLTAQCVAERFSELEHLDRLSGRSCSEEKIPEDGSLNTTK

[1] = tested on: panel of key proteins (cell receptors, neurotransmitter transporters, and ion channels); assay: In vitro safety pharmacology, binding (SafetyScreen 44); settings: 10 μM HYL001
Protocol: To identify potential adverse off-target drug interactions and derisk the development of HYL001 as a drug,[22] we performed binding and enzymatic inhibition assays with a panel of key proteins (mainly cell receptors, neurotransmitter transporters, and ion channels). […]
analysis by LC-MS/MS, using MRM mode. […]
related to phase I and phase II metabolism, respectively.
The PARs were used for calculation of metabolic stability. The 0 min area ratio was considered as 100%. The […]
incubation volume / number of cells (in millions) x K e. To calculate into full body context, the values of 120 […]
In vitro safety pharmacology […]
compared with historical values determined at Eurofins. Binding was defined as the % inhibition of the signal […]
enzyme activity. […] Results showing
The tail current amplitude, induced by a one […]
and expressed as % inhibition.
The Ames test was performed at Xenomatrix (Allschwil, Switzerland). Bacteria from the S. typhimurium

[2] = tested on: Salmonella typhimurium strains TA98, TA100, TA1535 and TA1537; assay: Ames test; format: cell-based
Protocol: The mutagenic potential of HYL001 was evaluated by the Ames test, assessing its ability to induce reverse mutations in the histidine operon of Salmonella typhimurium strains that allow for detection of both substitution mutations (TA100 and TA1535) and frameshift mutations (TA98 and TA1537). The mutagenic potential of HYL001 was tested at 6 concentrations (semilog 1–320 μg/mL) alone or in the presence of liver S9 fractions. […]
The Ames test was performed at Xenomatrix (Allschwil, Switzerland). Bacteria from the S. typhimurium […]
negative control, for 90 minutes in medium containing sufficient histidine to support approximately two cell divisions. After exposure, the cultures were diluted in pH indicator medium lacking histidine or tryptophan and aliquoted into 48 wells of a 384-well plate. Within two days, cells that have undergone reversion to amino acid prototrophy grow into colonies. The number of wells containing revertant colonies were counted by pH indicator colour change for each dose and compared to a solvent (negative) control. A dose dependent increase in the number of revertant colonies upon exposure to HYL001 would have indicated mutagenicity.

[3] = Plasma pharmacokinetics after single oral administration in mice; format: in vivo; settings: male, mouse, 71 mg/kg
Protocol: We assessed the in vivo pharmacokinetic properties of HYL001 after a single oral administration (dose of 71 mg/kg) in BALB/c mice as well as in Sprague–Dawley (SD) Rats. Liquid chromatography–tandem mass spectrometry (LC/MS/MS) was used for the determination of HYL001 in plasma (Figure S2 and Table 2).
6. Methods for in vivo characterizations of HYL001 […]
WinNonlin software (Version 8.0) […]

SMILES: Cc1cccc(-c2nn3c(c2-c2ccnc4ccc(C(N)=O)cc24)CCC3)n1 [galunisertib]
- Kd (ALK4 (ACVR1B); listed as Galunisertib): 77.7 nM
- Kd (ALK4 (ACVR1B)): ~78 nM
- Kd (ALK6 (BMPR1B)): 471 nM
- Kd (ACVR2B): 694 nM
- Kd (TGFBR2): 208 nM

SMILES: Cc1cccc(-c2nn3c(c2-c2ccnc4ccc(O)cc24)CCC3)n1 [HYL001, 4-(2-(6-Methylpyridin-2-yl)-5,6-dihydro-4H-pyrrolo[1,2-b]pyrazol-3-yl)quinolin-6-ol]
- Inhibition of binding to any safety panel target [1]: ≤ 50%
- Positive mutagenic responses (Ames test) ([2]; 6 concentrations 1–320 μg/mL, alone or with liver S9, all strains): No positive mutagenic responses
- Dose dependency ([2]; TA98, w/o S9): No
- Mutagenic data points ([2]; TA98, w/o S9): No
- Dose dependency ([2]; TA98, with S9): No
- Mutagenic data points ([2]; TA98, with S9): No
- Dose dependency ([2]; TA100, w/o S9): No
- Mutagenic data points ([2]; TA100, w/o S9): No
- Dose dependency ([2]; TA100, with S9): No
- Mutagenic data points ([2]; TA100, with S9): No
- Dose dependency ([2]; TA1535, w/o S9): No
- Mutagenic data points ([2]; TA1535, w/o S9): No
- Dose dependency ([2]; TA1535, with S9): No
- Mutagenic data points ([2]; TA1535, with S9): No
- Dose dependency ([2]; TA1537, w/o S9): No
- Mutagenic data points ([2]; TA1537, w/o S9): No
- Dose dependency ([2]; TA1537, with S9): No
- Mutagenic data points ([2]; TA1537, with S9): No
- half-life ([3]; BALB/c, po): ~2.5 h
- AUC(0-inf) ([3]; mice (♂ BALB/c)): 4110 ng·h/mL
- AUC(0-t) ([3]; mice (♂ BALB/c)): 3520 ng·h/mL
- CL/F ([3]; mice (♂ BALB/c)): 288 mL/min/kg
- Cmax ([3]; mice (♂ BALB/c)): 2050 ng/mL
- Tmax ([3]; mice (♂ BALB/c)): 0.25 h
- Vd/F ([3]; mice (♂ BALB/c), read-out: Vss/F): 66.7 L/kg
